# Experimental data from US20090306072A1, “USE OF TYROSINE KINASE INHIBITORS FOR THE TREATMENT OF INFLAMMATORY PROCESSES” (Boehringer Ingelheim Pharma GmbH & Co. KG, priority 2002, published 2009).
# Test system: cigarette smoke-induced influx of neutrophilic granulocytes into the lung tissue
# Assay: Test 1: inhibition of smoke-induced accumulation of granulocytes in the lung tissue (MPO activity)
# Type: in vivo, rats (Sprague-Dawley)
# Details: Rattus norvegicus; male rats, smoke from 8 cigarettes a day for 5 days; intratracheal dose each day 30 mins before smoke exposure; lung tissue MPO; linear regression; read-out: ID50 (dosage that produced a 50% inhibition of the MPO activity)
# Procedure: Male rats (breed: Sprague-Dawley) weighing from 250-300 g were exposed to the smoke from 8 cigarettes a day for 5 days. […] On the last day of the experiment the animals were killed 4 hours after the final smoke exposure and the lung tissue was removed. From each lung a sample of 70-200 mg was taken and placed in a prepared test tube containing 1 ml of 0.5% hexadecyltrimethyl ammonium bromide. The samples were homogenised for 15 sec with an Ultraturrax. The homogenates were centrifuged off in an Eppendorf bench centrifuge at 15700 g for 5 min at ambient temperature. […] After 10 minutes' incubation at ambient temperature, the absorption was measured with a spectral photometer at a wavelength of 450 nm.
row,Molecule,ED50 [mg/kg]
1,"COCCN(CC=CC(=O)Nc1cc2c(Nc3ccc(F)c(Cl)c3)ncnc2cc1OCC1CC1)CCOC [E, 4-[(3-chloro-4-fluoro-phenyl)amino]-6-({4-[bis-(2-methoxyethyl)-amino]-1-oxo-2-buten-1-yl}amino)-7-cyclopropylmethoxy-quinazoline]",0.2
2,"C[C@@H](Nc1ncnc2cc(OCC3CC3)c(NC(=O)C=CCN(C)C3CCOCC3)cc12)c1ccccc1 [L, 4-[(R)-(1-phenyl-ethyl)amino]-6-({4-[N-(tetrahydropyran-4-yl)-N-methyl-amino]-1-oxo-2-buten-1-yl}amino)-7-cyclopropylmethoxy-quinazoline]",0.1
3,"C[C@@H]1CN(CC=CC(=O)Nc2cc3c(Nc4ccc(F)c(Cl)c4)ncnc3cc2OCC2CC2)CC(=O)O1 [F, 4-[(3-chloro-4-fluoro-phenyl)amino]-6-{[4-((R)-6-methyl-2-oxo-morpholin-4-yl)-1-oxo-2-buten-1-yl]amino}-7-cyclopropylmethoxy-quinazoline]",0.3
4,"C=CC(=O)Nc1cc2c(Nc3ccc(F)c(Cl)c3)ncnc2cc1OCCCCN1CC(=O)O[C@@H](C)C1 [D, 4-[(3-chloro-4-fluoro-phenyl)amino]-7-[4-((S)-6-methyl-2-oxo-morpholin-4-yl)-butyloxy]-6-[(vinylcarbonyl)amino]-quinazoline]",0.3
5,"C=CC(=O)Nc1cc2c(Nc3ccc(F)c(Cl)c3)ncnc2cc1OCCCCN1CC(=O)OC(C)(C)C1 [C, 4-[(3-chloro-4-fluoro-phenyl)amino]-7-[4-(2,2-dimethyl-6-oxo-morpholin-4-yl)-butyloxy]-6-[(vinylcarbonyl)amino]-quinazoline]",0.03
6,"COC[C@@H]1CN(CC=CC(=O)Nc2cc3c(Nc4ccc(F)c(Cl)c4)ncnc3cc2OCC2CC2)CC(=O)O1 [H, 4-[(3-chloro-4-fluoro-phenyl)amino]-6-{[4-((S)-2-methoxymethyl-6-oxo-morpholin-4-yl)-1-oxo-2-buten-1-yl]amino}-7-cyclopropylmethoxy-quinazoline]",0.3
7,"COCCN(CC=CC(=O)Nc1cc2c(N[C@H](C)c3ccccc3)ncnc2cc1OCC1CC1)CCOC [K, 4-[(R)-(1-phenyl-ethyl)amino]-6-{[4-(N,N-bis-(2-methoxy-ethyl)-amino)-1-oxo-2-buten-1-yl]amino}-7-cyclopropylmethoxy-quinazoline]",0.3
8,"C=CC(=O)Nc1cc2c(Nc3ccc(F)c(Cl)c3)ncnc2cc1OCCCCN1CC(=O)O[C@H](C)C1 [B, 4-[(3-chloro-4-fluoro-phenyl)amino]-7-[4-((R)-6-methyl-2-oxo-morpholin-4-yl)-butyloxy]-6-[(vinylcarbonyl)amino]-quinazoline]",0.03
9,"COc1cc2ncnc(Nc3ccc(F)c(Cl)c3)c2cc1OCCN1CC(=O)O[C@@H](C)C1 [compound A, 4-[(3-chloro-4-fluoro-phenyl)amino]-6-[2-((S)-6-methyl-2-oxo-morpholin-4-yl)-ethoxy]-7-methoxy-quinazoline]",0.1
10,"CCN(CC=CC(=O)Nc1cc2c(N[C@H](C)c3ccccc3)ncnc2cc1OCC1CC1)CCOC [I, 4-[(R)-(1-phenyl-ethyl)amino]-6-({4-[N-(2-methoxy-ethyl)-N-ethyl-amino]-1-oxo-2-buten-1-yl}amino)-7-cyclopropylmethoxy-quinazoline]",0.2

# Same assay, conditions: male rats, smoke from 8 cigarettes a day for 5 days; intratracheal dose each day 30 mins before smoke exposure; lung tissue MPO; linear regression
row,Molecule,ID50 (dosage that produced a 50% inhibition of the MPO activity) [mg/kg]
1,4-[(3-chloro-4-fluoro-phenyl)amino]-6-[2-((S)-6-methyl-2-oxo-morpholin-4-yl)-ethoxy]-7-methoxy-quinazoline [G],<0.03

# Same assay, conditions: rats, intratracheal 0.03 or 0.1 mg/kg daily, lung tissue myeloperoxidase
row,Molecule,inhibition of the smoke-induced accumulation of granulocytes
1,"COc1cc2ncnc(Nc3ccc(F)c(Cl)c3)c2cc1OCCN1CC(=O)O[C@@H](C)C1 [compound A, 4-[(3-chloro-4-fluoro-phenyl)amino]-6-[2-((S)-6-methyl-2-oxo-morpholin-4-yl)-ethoxy]-7-methoxy-quinazoline]",significant (p<0.005) inhibition

# Test system: not given
# Assay: not given
# Details: not given
row,melting point [°C],Molecule
1,190,"COc1cc2ncnc(Nc3cccc(Br)c3)c2cc1OCCN1CC(=O)O[C@@H](C)C1 [Example 7, 4-[(3-bromo-phenyl)amino]-6-[2-((S)-6-methyl-2-oxo-morpholin-4-yl)-ethoxy]-7-methoxy-quinazoline]"
2,122 to 124,"CCOC(=O)CN(C)CC=CC(=O)Nc1cc2c(Nc3cccc(C)c3)ncnc2cc1OC [Example 4, 4-[(3-methylphenyl)amino]-6-[(4-{N-[(ethoxycarbonyl)methyl]-N-methylamino}-1-oxo-2-buten-1-yl)amino]-7-methoxy-quinazoline]"
3,114,"CCN(CC)CC=CC(=O)Nc1cc2c(Nc3ccc(F)c(Cl)c3)ncnc2cc1OCC1CC1 [Example 3, 4-[(3-chloro-4-fluorophenyl)amino]-6-{[4-(N,N-diethylamino)-1-oxo-2-buten-1-yl]amino}-7-cyclopropylmethoxy-quinazoline]"
4,110 to 112,"C=CC(=O)Nc1cc2c(Nc3ccc(F)c(Cl)c3)ncnc2cc1OCCCCN1CC(=O)OC(C)(C)C1 [C, 4-[(3-chloro-4-fluoro-phenyl)amino]-7-[4-(2,2-dimethyl-6-oxo-morpholin-4-yl)-butyloxy]-6-[(vinylcarbonyl)amino]-quinazoline]"
5,140,"CN(CC=CC(=O)Nc1cc2c(Nc3ccc(F)c(Cl)c3)ncnc2cc1OC1CCCC1)C1CC1 [Example 8(9), 4-[(3-chloro-4-fluorophenyl)amino]-6-{[4-(N-cyclopropyl-N-methyl-amino)-1-oxo-2-buten-1-yl]amino}-7-cyclopentyloxy-quinazoline]"
6,137,"CN(C)CC=CC(=O)Nc1cc2c(Nc3ccc(F)c(Cl)c3)ncnc2cc1OCC1CC1 [Example 3(2), 4-[(3-chloro-4-fluorophenyl)amino]-6-{[4-(N,N-dimethylamino)-1-oxo-2-buten-1-yl]-amino}-7-cyclopropylmethoxy-quinazoline]"
7,173 to 175,"C[C@H]1CN(CC=CC(=O)Nc2cc3c(Nc4ccc(F)c(Cl)c4)ncnc3cc2OCC2CC2)CC(=O)O1 [Example 6, 4-[(3-chloro-4-fluoro-phenyl)amino]-6-{[4-((S)-6-methyl-2-oxo-morpholin-4-yl)-1-oxo-2-buten-1-yl]amino}-7-cyclopropylmethoxy-quinazoline]"
8,110 to 112,"CN(C)CC=CC(=O)Nc1cc2c(Nc3ccc(F)c(Cl)c3)ncnc2cc1OC[C@H]1CCCO1 [Example 8(10), 4-[(3-chloro-4-fluorophenyl)amino]-6-{[4-(N,N-dimethylamino)-1-oxo-2-buten-1-yl]-amino}-7-[(R)-(tetrahydrofuran-2-yl)methoxy]-quinazoline]"

# Test system: zymosan-induced influx of neutrophilic granulocytes in the mouse ear
# Assay: Test 2: inhibition of the zymosan-induced influx of neutrophilic granulocytes in the mouse ear (MPO activity)
# Type: in vivo
# Details: female NMRI mice, ear biopsy 24 h after intradermal zymosan; p<0.005
# From the text: • Test 2: Detection of a general anti-inflammatory principle of activity by inhibition of the zymosan-induced influx of neutrophilic granulocytes in the mouse ear by the EGF-receptor kinase inhibitor 4-[(3-chloro-4-fluoro-phenyl)amino]-6-[(4-dimethylamino-cyclohexyl)amino]-pyrimido[5,4-d]pyrimidine (compound N).
# Determining the influx of neutrophilic granulocytes by measuring the myeloperoxidase (MPO) activity in the tissue. MPO is specific for neutrophilic granulocytes.
# Female mice (breed: NMRI) weighing 20-25 g were anaesthetised with pentobarbital 60 mg/kg i.p. […] of zymosan dissolved in physiological saline in a volume of […] were administered intradermally into the right ear. 24 h after the intradermal application of zymosan the animals were killed with an overdose of pentobarbital. An ear biopsy (0=8 mm) was taken from the left (untreated) and right (treated) ear and placed in a test tube prepared with 1 ml of 0.5% HTAB. The samples were homogenised for 15 sec with an Ultraturrax. The homogenised preparations were centrifuged for 5 min in an Eppendorf bench centrifuge at 15700 g at ambient temperature. […] After 10 minutes' incubation at ambient temperature the absorption was measured with a spectral photometer at a wavelength of 450 nm.
row,Molecule,inhibition of the zymosan-induced increase in the MPO activity in the tissue [%]
1,"CN(C)C1CCC(Nc2ncc3ncnc(Nc4ccc(F)c(Cl)c4)c3n2)CC1 (stereo not drawn) [compound N, 4-[(3-chloro-4-fluoro-phenyl)amino]-6-[(4-dimethylamino-cyclohexyl)amino]-pyrimido[5,4-d]pyrimidine]",60
